Measured values from patent publication US20240009276A1, “S[…] OF IMMUNITY AGAINST RNA VIRUSES” (Health Research, Inc., priority 2020, published 2024).

Legend:
[1] = tested on: Human epithelial cells (SW620); format: cell-based; set-up: key to synergy of combination with Poly-IC / synergy of combination with rintatolimod / synergy of combination with TNFα: Yes*: *Direct support by current data (Rintatolimod and poly-IC share binding to TLR3 but not other immunostimulatory properties/recognition receptors/signaling pathways^3)
human coronavirus OC43 = details: human coronavirus OC43, BS-C-1 kidney cells; cited from earlier work
[2] = cited from earlier work
SARS-CoV = details: mouse, in vivo; cited from earlier work

Substance	synergy of combination with Poly-IC [1]	synergy of combination with TNFα [1]	synergy of combination with rintatolimod [1]	induction of genes involved in SARS-Cov elimination (OAS2, Ifit-1, Mx1, RIG-I, MDA5, TLR3, other ISGs) [1]	EC50 (human coronavirus OC43)	easily achievable concentration in humans [2]	antiviral/survival effect (SARS-CoV)
IFNγ	Yes*	Yes*	Yes*				
polyinosinic:polycytidylic acid [poly-I:C, reference compound]				synergistic effects			
rintatolimod [reference compound]				synergistic effects	0.4 µg/mL	40 µg/mL	significant antiviral/survival effect
IFNα	Yes*	Yes*	Yes*				significant antiviral/survival effect
